This note sets out measurements from paper PMC4225846, “The Assessment of Cholinesterase from the Liver of Puntius Javanicus as Detection of Metal Ions” (The Scientific World Journal, 2014).

The assay relates to T1, P. javanicus ChE (cholinesterase from the liver of Puntius javanicus).
T1 construct: gene BCHE
Nature of the assay: Ellman assay (DTNB), […] nm, Michaelis-Menten fit. The conditions noted are these: 0.1 M sodium phosphate pH 7.0, ambient temperature, 0.1-2.5 mM substrate, 95% confidence interval in brackets. The assay is classed as biochemical, Barbonymus gonionotus. A general note: Ellman's reagent forms a yellow product with free thiols.

Each structure is given as a SMILES string. Read-outs that look alike come from different tables or passages of the source.

Take `CCCC(=O)SCC[N+](C)(C)C` [BTC, S-Butyrylthiocholine iodide]: the Km (read-out: BTC) is 230 µM.
For the compound `CC(=O)SCC[N+](C)(C)C` [ATC, acetylthiocholine iodide], under “read-out: ATC”, the Km was determined as 410 µM.
Turning to `CCC(=O)SCC[N+](C)(C)C` [PTC, propionylthiocholine iodide], under “read-out: PTC”, the Km was determined as 830 µM.
